# Measurements from US20260185056A1, “TRIPLE TISSUE CULTURE FUSION” (IMBA - INSTITUT FÜR MOLEKULARE BIOTECHNOLOGIE GMBH, priority 2022, published 2026).
# “Also recorded” adds a separate entry of the source.
# Legend:
# [1] = tested on: ventral midbrain organoids; assay: SAG dose curve for floor plate induction in ventral midbrain organoids (qPCR FOXA2); format: cell-based, human; details: day 4-11, with dual SMAD inhibition and Wnt activation; by day 20
# Method: FIG. 2A-D: qPCR analysis of markers of ventral midbrain of the dose curving experiment to generate ventral midbrain organoids. Two separate dose curving experiments were performed, where first the correct dosage of sonic hedgehog activation was tested (FIG. 2A, floor plate marker FOXA2). Secondly, we performed qPCR to test for appropriate concentrations of posteriorization using Wnt activation. Dopaminergic neurons are born in the very ventral floor plate of the posterior midbrain, next to the midbrain-hindbrain boundary, thus the Forebrain and Midbrain marker OTX2 should still be expressed, whereas the hindbrain is OTX2 negative. We found a concentration of 0.8-1 μM sufficient to introduce midbrain (FIG. 2B), while the floor plate marker FOXA2 was still expressed (FIG. 2C). qPCR for the dopaminergic marker TH (Tyrosine hydroxylase, the rate-limiting enzyme for dopamine synthesis) confirmed this concentration of Wnt activation, with a sharp drop of TH expression starting at 1.2 μM CHIR (FIG. 2D).
# All qPCR data are relative to the expression of TBP.
# For ventral midbrain organoid preparation, cells were grown for 2-3 days after splitting in MG coated 6 well plates and dissociated using 600 μl Accutase. […] Cells were resuspended in 1 ml stem cell media +1:100 RI and counted. […]
# Quantification was performed in excel by calculating ΔCt relative to TBP. […]
# [2] = tested on: striatal organoids; assay: SAG dose-response curve in presence of IWP2 for LGE patterning of striatal organoids; format: cell-based, human
# Method: Panel C, D: Quantifications of GSX2^+ rosettes and PAX6^− rosettes, indicating LGE identity.
# Panel E-F: Immunolabeling of CTIP2, an important early striatal marker, in two conditions with promising numbers of GSX2^+ rosettes, but low PAX6 expression.
# For striatal organoid preparation, cells were grown for 2-3 days after splitting in MG coated 6 well plates and dissociated using 600 μl Accutase. 9000 cells were then transferred into 150 μl neural induction media containing 10 nM SAG and 2.5 μM IWP2 (SigmaAldrich, Cat. #10536) as well as 1:100 ROCK inhibitor. Media was exchanged on day 2 by replacing 100 μl media with 150 μl fresh NI media containing 10 nM SAG, 2.5 μM IWP2 and 1:100 ROCK inhibitor.
# Striatal neurons are born majorly from the lateral ganglionic eminence (LGE), from where they migrate and form the developing striatum (Fjodorova, Noakes and Li, Neurogenesis, 2(1), 2015, Ornorati et al., Nat. Neurosci. 17, 1804-15, 2014). To pattern into LGE, we performed a dose curve experiment in a Wnt inhibitory context (IWP-2, which anteriorized and inhibits dorsal fate) similar to previous 2D differentiation approaches (Wu et al., Stem Cell Reports 11, 635-650, 2018). In brief, we activated sonic hedgehog signaling with the small molecule SAG at concentrations between 10 nM and 100 nM (FIG. 4B). We performed a SAG dose-response curve in the presence of the Wnt inhibitor IWP2 in an otherwise growth-factor free neural induction media.
# [3] = lowest concentration of SAG (10 nM), with IWP2, day 28 organoids
structure (smiles),measurement,setting,value
"CN[C@H]1CC[C@H](N(Cc2cccc(-c3ccncc3)c2)C(=O)c2sc3ccccc3c2Cl)CC1 [SAG, 3-Chloro-N-[trans-4-(methylamino)cyclo-hexyl]-N-[[3-(4-pyridinyl)phenyl]methyl]benzo[b]thiophene-2-carboxamide]",concentration sufficient to introduce maximal FOXA2 expression levels,[1],300 nM
same,CTIP2 expression,[2]; 25 nM SAG treated organoids compared with SAG10 treated organoids,much lower; also recorded: significantly lower
same,rosettes expressing the LGE marker GSX2,[2]; [3],high level
same,rosettes expressing the more dorsal marker PAX6,[2]; [3],low number
